US11072596B2, “Poly(ADP-ribose) polymerase inhibitor, preparation method and use” (SELECTION BIOSCIENCE LLC, priority 2017, dated 2021)

Assays:
CYP2D6 = target: T1, CYP2D6 (Homo sapiens, UniProt P10635); assay: Inhibition of human liver microsomal CYP450 enzymes, CYP2D6; format: in vitro ADME; conditions: human liver microsomes, substrate Bufuralol 10 μM; Reference = quinidine; read-out: IC50 2D6
T1 construct: from tissue; host or cells: human liver microsomes (HLM)
Procedure: (§1) The inhibitory effects of the compound of the present disclosure on the CYP450 enzymes of six human subtypes were determined by the following experimental method:
(§2) Reference compounds of each subtype: CYP1A2: α-naphthoflavone; CYP2C9: sulfaphenazole; CYP2C19: omeprazole; CYP3A4: ketoconazole; CYP2D6: quinidine.
(§3) Substrate concentration: CYP1A2: Phenacetin at 30 μM; CYP2C9: Diclofenac at 10 μM; CYP2C19: S-Mephenytoin at 35 μM; CYP3A4: Midazolam at 5 μM and Testosterone at 80 μM; CYP2D6: Bufuralol at 10 μM.
(§4) 6. 0.2 mg/mL of HLM was added to the test wells, 400 μL per well, and then the gradient diluted 400× test compound was added to the corresponding wells.
(§5) 7. 0.2 mg/mL of HLM was added to the test wells, 200 μL per well, and then the gradient-diluted reference inhibitor was added to the corresponding wells. Steps 6 and 7 needed to be performed on ice.
(§6) 8.1. 30 μL of test compound and reference compound were mixed in 0.2 mg/mL of HLM solution (see steps 6 and 7).
(§7) 8.2. 15 μL of 4× substrate solution (see step 4) was added.
(§8) 10. Preheated 8 mM of NADPH solution was added to the 96-well test plate (see step 3) to initiate the reaction, 15 μL per well.
(§9) 11. The test plate was incubated at 37° C.: 3A4 for 5 minutes, each of 1A2, 2C9 and 2D6 for 10 minutes, and 2C19 for 45 minutes.
(§10) 12. ACN containing internal reference was added to stop the reaction, 120 μL per well.
14. […]

CYP2C19 = target: T2, CYP2C19 (Homo sapiens, UniProt P33261); assay: Inhibition of human liver microsomal CYP450 enzymes, CYP2C19; format: in vitro ADME; conditions: human liver microsomes, substrate S-Mephenytoin 35 μM; Reference = omeprazole; read-out: IC50 2C19
T2 construct: from tissue; host or cells: human liver microsomes (HLM)
Procedure: as §1, §2, §3, §4, §5, §6, §7, §8, §9, §10
14. […]

[1] = target: hERG potassium ion channel (Homo sapiens, UniProt Q12809); assay: hERG potassium ion channel inhibitory activity (Qpatch, CHO-hERG cells); conditions: for inhibition at 2.5 min, 40 µM: human
Procedure: CHO-hERG cells were cultured in a 175 cm^2 flask, and when the cell density was increased to 60-80%, the medium was removed and washed with 7 mL of PBS (Phosphate Buffered Saline phosphate buffer), and then digested with 3 mL of Detachin.
The single-cell high impedance sealing and the whole-cell mode formation process were all automatically completed by the Qpatch instrument. After obtaining the whole-cell recording mode, the cells were clamped at −80 mV (millivolt). Before giving a 5-second+40 mV depolarization stimulus, a 50 ms-50 mV pre-voltage was first given, repolarized to −50 mV for 5 seconds, and then returned to −80 mV. This voltage stimulation was applied every 15 seconds. After recording for 2 minutes, extracellular fluid was given for 5 minutes, and then the administration process was started. The compound concentration started from the lowest test concentration, and each test concentration was given for 2.5 minutes. […] At least 3 cells were tested at each concentration (n≥3).
The 20 mM compound mother solution was diluted with extracellular fluid, and 5 μL of 20 mM compound mother solution was added to 2495 μL of extracellular solution, diluted 500-fold to 40 μM, and then sequentially performed 3-fold continuous dilution in an extracellular fluid containing 0.2% DMSO to obtain the final concentration to be tested.
The experimental data were analyzed by XLFit software.

[2] = Liver microsomal stability in vitro, cynomolgus monkey; format: in vitro ADME; conditions: for half-life at 1 μM: pH 7.4, cynomolgus monkey liver microsomes 0.5 mg protein/mL, 1 μM test compound, 37° C., read-out: Cynomolgus monkey T1/2
Procedure: Evaluation of in vitro liver microsomal stability of the compound of the present disclosure was tested by the following method:
Buffer: 100 mM potassium phosphate buffer, pH 7.4; […] MgCl2.
Liver microsomes: human liver microsomes, Corning Cat No. 452117; Rat liver microsomes, Xenotech Cat No. R1000; Mouse liver microsomes, Xenotech Cat No. M1000; Dog liver microsomes, Xenotech Cat No. D1000; Liver microsomes of cynomolgus monkey, Corning Cat No. 452413, the final concentration was 0.5 mg protein/mL.
1. Intermediate solution: 5 μL of compound or control in stock solution (10 mM) was diluted with 495 μL of methanol (concentration: 100 μM, 99% MeOH).
2. Operating solution: the intermediate solution was diluted […] with 450 μL 100 mM potassium phosphate buffer (concentration: 10 μM, 9.9% MeOH).
1. 10 μL of compound or control solution per well was added to all plates (T0, T5, T10, T20, T30, T60, NCF60) except matrix blank.
2. Microsome solution was distributed to 96-well plates according to platemap for standby, 680 μL per well, and the mixture of microsome solution and the compound was incubated at 37° C. for about 10 minutes.
4. After preheating, NADPH regeneration system was distributed to 96-well plate, 90 μL per well, for standby according to plate map, which was added to each plate to start the reaction, 10 μL per well. The final concentration of each component in the incubation medium includes: 0.5 mg protein/mL microsome, 1 μM test compound, […], 0.99% methanol and 0.01% DMSO.
6. The above-prepared stop solution (4° C. cooling) was added to stop the reaction, 300 μL per well.
9. During centrifugation, eight new 96-well plates were loaded with 300 μL of HPLC water, and then 100 μL of supernatant was transferred for mixing, followed by LC/MS/MS detection.
10. Data analysis: The peak area of the corresponding compound and internal standard was detected by LC-MS/MS, and the T1/2 of the compound was calculated by the following formula: […]

PARP1 = target: T3, PARP1 (Homo sapiens, UniProt P09874); assay: PARP1 Colorimetric Assay (PARP-1 kinase inhibitory activity); format: biochemical; conditions: PARP1 colorimetric assay kit, 1 hour at room temperature; read-out: PARP1 (in vitro enzymatic inhibitory activity, IC50)
T3 construct: purchased BPS 80580
Procedure: PARP1 kinase activity was tested by the following method:
PARP1 Colorimetric Assay Kit (BPS, Cat #80580)
1. PARP1 Colorimetric Assay
2) 50 μL of diluted coating solution was added to each well for overnight at 4° C.
4) 200 μL of blocking buffer was added to each well and incubated at room temperature for 90 minutes.
1) A reaction solution was prepared in a ratio of […] 2.5 μL 10×PARP buffer+2.5 μL 10×PARP Assay mixture+5 μL Activated DNA+15 μL deionized water per well, and 25 μL of the reaction solution was added to each well (see Table 1).
4) 100 μL of colorimetric HRP substrate was added to each well and reacted at room temperature for 20 minutes.
5) 100 μL of 2 M H2SO4 was added to each well and OD 450 nm was read on a microplate reader.

Chain of hERG potassium ion channel (Q12809 whole entry): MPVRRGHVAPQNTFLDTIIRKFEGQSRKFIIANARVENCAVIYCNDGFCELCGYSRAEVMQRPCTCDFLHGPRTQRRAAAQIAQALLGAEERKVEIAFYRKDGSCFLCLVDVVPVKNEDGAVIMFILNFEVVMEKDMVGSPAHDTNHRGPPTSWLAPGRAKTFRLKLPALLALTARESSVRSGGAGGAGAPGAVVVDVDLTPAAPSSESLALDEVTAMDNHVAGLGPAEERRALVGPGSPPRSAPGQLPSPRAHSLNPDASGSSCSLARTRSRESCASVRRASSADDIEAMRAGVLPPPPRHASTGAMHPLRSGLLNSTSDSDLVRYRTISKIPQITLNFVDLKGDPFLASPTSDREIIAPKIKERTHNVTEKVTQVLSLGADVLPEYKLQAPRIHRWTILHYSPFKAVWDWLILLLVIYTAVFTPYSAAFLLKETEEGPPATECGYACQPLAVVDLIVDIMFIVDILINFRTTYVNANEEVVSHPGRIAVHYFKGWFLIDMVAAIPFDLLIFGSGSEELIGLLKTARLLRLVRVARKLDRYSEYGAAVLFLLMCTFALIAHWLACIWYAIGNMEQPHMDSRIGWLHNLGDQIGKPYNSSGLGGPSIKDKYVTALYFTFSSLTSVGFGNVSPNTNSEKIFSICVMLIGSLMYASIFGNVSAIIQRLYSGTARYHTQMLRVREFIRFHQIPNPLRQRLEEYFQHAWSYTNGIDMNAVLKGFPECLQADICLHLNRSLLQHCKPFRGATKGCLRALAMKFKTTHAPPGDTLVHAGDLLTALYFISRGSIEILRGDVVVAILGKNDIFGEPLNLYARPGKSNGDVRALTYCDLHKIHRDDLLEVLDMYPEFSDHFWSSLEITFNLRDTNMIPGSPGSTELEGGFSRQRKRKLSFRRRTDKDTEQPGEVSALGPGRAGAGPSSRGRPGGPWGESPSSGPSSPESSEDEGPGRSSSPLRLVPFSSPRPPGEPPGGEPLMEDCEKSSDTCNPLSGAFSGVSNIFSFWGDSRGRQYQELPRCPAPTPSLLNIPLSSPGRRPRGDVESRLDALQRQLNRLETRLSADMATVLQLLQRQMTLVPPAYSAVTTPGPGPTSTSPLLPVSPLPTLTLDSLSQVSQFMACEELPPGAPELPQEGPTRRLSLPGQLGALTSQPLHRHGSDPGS
T1 sequence (P10635 whole entry): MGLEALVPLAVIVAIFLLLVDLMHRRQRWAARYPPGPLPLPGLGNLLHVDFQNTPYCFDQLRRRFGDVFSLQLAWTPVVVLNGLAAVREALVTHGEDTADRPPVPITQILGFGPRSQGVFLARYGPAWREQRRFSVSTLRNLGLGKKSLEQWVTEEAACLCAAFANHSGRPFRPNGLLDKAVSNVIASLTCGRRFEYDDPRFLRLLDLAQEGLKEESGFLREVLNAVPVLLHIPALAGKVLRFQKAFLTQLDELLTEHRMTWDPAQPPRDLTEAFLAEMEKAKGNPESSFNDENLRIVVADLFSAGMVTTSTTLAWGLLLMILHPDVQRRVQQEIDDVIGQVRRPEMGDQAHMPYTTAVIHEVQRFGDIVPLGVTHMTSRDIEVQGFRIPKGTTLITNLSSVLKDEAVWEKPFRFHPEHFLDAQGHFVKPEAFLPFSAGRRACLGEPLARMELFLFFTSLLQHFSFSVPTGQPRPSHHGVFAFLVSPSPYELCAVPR
T2 sequence (P33261 whole entry): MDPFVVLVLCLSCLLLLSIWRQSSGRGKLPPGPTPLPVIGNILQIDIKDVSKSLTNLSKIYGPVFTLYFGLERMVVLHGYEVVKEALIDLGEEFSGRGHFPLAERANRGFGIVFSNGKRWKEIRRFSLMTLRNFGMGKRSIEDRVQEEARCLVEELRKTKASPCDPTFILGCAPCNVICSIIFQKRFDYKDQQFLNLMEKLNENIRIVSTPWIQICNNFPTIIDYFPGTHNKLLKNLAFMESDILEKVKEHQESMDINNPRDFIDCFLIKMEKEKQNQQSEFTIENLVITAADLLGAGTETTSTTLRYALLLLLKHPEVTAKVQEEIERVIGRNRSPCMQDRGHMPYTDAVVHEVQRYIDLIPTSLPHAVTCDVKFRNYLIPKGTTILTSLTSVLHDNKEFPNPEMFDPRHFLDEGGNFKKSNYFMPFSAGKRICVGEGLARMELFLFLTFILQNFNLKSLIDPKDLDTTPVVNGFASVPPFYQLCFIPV
T3 sequence (P09874 whole entry): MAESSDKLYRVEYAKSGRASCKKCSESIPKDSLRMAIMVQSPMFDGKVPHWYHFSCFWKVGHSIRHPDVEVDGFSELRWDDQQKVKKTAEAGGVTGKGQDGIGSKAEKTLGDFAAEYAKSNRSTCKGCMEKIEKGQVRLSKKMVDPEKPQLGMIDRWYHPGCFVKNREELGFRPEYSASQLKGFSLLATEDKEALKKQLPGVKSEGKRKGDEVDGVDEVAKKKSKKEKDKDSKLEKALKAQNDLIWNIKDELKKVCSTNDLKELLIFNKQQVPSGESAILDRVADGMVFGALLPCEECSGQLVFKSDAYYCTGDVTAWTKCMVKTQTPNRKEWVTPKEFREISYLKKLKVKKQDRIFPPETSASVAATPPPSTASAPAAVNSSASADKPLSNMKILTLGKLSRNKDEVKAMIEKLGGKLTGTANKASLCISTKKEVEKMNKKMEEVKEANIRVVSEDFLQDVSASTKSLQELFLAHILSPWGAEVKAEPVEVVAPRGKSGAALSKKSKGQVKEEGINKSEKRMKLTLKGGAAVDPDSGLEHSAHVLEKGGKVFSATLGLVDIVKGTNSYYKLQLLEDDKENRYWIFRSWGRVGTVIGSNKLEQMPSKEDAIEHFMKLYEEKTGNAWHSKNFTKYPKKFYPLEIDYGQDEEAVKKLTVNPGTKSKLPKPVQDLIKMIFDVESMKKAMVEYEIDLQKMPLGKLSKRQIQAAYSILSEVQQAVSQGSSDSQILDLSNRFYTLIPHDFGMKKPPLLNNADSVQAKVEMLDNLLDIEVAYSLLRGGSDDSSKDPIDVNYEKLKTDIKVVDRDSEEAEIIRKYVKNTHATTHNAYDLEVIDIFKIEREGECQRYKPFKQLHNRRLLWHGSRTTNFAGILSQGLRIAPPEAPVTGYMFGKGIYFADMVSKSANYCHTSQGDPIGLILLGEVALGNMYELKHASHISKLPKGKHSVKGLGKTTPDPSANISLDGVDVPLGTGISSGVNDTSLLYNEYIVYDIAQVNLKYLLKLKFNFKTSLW

SMILES	IC50 (CYP2D6) [µM]	IC50 (CYP2C19) [µM]	IC50 [1] [µM]	inhibition at 2.5 min, 40 µM ([1]; CHO cells that express hERG (CHO-hERG)) [%]	half-life at 1 μM [2] [h]	IC50 (PARP1) [µM]	inhibition at 2.5 min, 40 µM [1] [%]	metabolic stability in cynomolgus monkey liver microsomes, in words ([2]; cynomolgus monkey liver microsomes)
NC(=O)c1cccc2cn(-c3ccc([C@@H]4CCCNC4)cc3)nc12 [Niraparib, reference compound]	> 10	> 10	39.6	50.4	0.967			
NC(=O)c1cccc2cn(-c3ccc([C@]4(F)CCCNC4)cc3)nc12 (single isomer, unassigned) [Example 23, (R or S)-2-(4-(3-fluoropiperidin-3-yl)phenyl)-2H-indazole-7-carboxamide]	> 10	> 10	> 40		1.03	< 0.1	29.8	excellent metabolic stability
